Data taken from the NIST ThermoML archive (doi:10.1021/je800251v).

Settings: Liquid

CCCCC(=O)OCC [ethyl pentanoate]
Settings	mass density [kg/m3]
298.15 K, 100 kPa	870.7
298.15 K, 1000 kPa	871.5
298.15 K, 2000 kPa	872.4
298.15 K, 2780 kPa	873
298.15 K, 3000 kPa	873.2
298.15 K, 5000 kPa	875.1
298.15 K, 10000 kPa	879.4
298.15 K, 15000 kPa	883.4
298.15 K, 20000 kPa	887.3
298.15 K, 25000 kPa	891
298.15 K, 30000 kPa	894.6
298.15 K, 35000 kPa	898.1
303.15 K, 100 kPa	865.5
303.15 K, 1000 kPa	866.4
303.15 K, 2000 kPa	867.4
303.15 K, 2780 kPa	868.1
303.15 K, 3000 kPa	868.3
303.15 K, 5000 kPa	870.1
303.15 K, 10000 kPa	874.5
303.15 K, 15000 kPa	878.7
303.15 K, 20000 kPa	882.6
303.15 K, 25000 kPa	886.5
303.15 K, 30000 kPa	890.2
303.15 K, 35000 kPa	893.8
308.15 K, 100 kPa	860.3
308.15 K, 1000 kPa	861.2
308.15 K, 2000 kPa	862.1
308.15 K, 2780 kPa	862.9
308.15 K, 3000 kPa	863.1
308.15 K, 5000 kPa	865
308.15 K, 10000 kPa	869.5
308.15 K, 15000 kPa	873.8
308.15 K, 20000 kPa	877.8
308.15 K, 25000 kPa	881.8
308.15 K, 30000 kPa	885.6
308.15 K, 35000 kPa	889.2
313.15 K, 100 kPa	855
313.15 K, 1000 kPa	855.9
313.15 K, 2000 kPa	856.9
313.15 K, 2780 kPa	857.7
313.15 K, 3000 kPa	857.9
313.15 K, 5000 kPa	859.9
313.15 K, 10000 kPa	864.5
313.15 K, 15000 kPa	868.9
313.15 K, 20000 kPa	873
313.15 K, 25000 kPa	877
313.15 K, 30000 kPa	880.9
313.15 K, 35000 kPa	884.6
318.15 K, 100 kPa	849.8
318.15 K, 1000 kPa	850.6
318.15 K, 2000 kPa	851.7
318.15 K, 2780 kPa	852.4
318.15 K, 3000 kPa	852.7
318.15 K, 5000 kPa	854.6
318.15 K, 10000 kPa	859.4
318.15 K, 15000 kPa	863.9
318.15 K, 20000 kPa	868.2
318.15 K, 25000 kPa	872.3
318.15 K, 30000 kPa	876.3
318.15 K, 35000 kPa	880.1
323.15 K, 100 kPa	844.4
323.15 K, 1000 kPa	845.3
323.15 K, 2000 kPa	846.4
323.15 K, 2780 kPa	847.2
323.15 K, 3000 kPa	847.4
323.15 K, 5000 kPa	849.4
323.15 K, 10000 kPa	854.3
323.15 K, 15000 kPa	859
323.15 K, 20000 kPa	863.4
323.15 K, 25000 kPa	867.6
323.15 K, 30000 kPa	871.7
323.15 K, 35000 kPa	875.5
328.15 K, 100 kPa	839.1
328.15 K, 1000 kPa	840
328.15 K, 2000 kPa	841.1
328.15 K, 2780 kPa	842
328.15 K, 3000 kPa	842.3
328.15 K, 5000 kPa	844.4
328.15 K, 10000 kPa	849.4
328.15 K, 15000 kPa	854.2
328.15 K, 20000 kPa	858.7
328.15 K, 25000 kPa	863
328.15 K, 30000 kPa	867.1
328.15 K, 35000 kPa	871.1
333.15 K, 100 kPa	833.7
333.15 K, 1000 kPa	834.7
333.15 K, 2000 kPa	836
333.15 K, 2780 kPa	836.9
333.15 K, 3000 kPa	837.1
333.15 K, 5000 kPa	839.3
333.15 K, 10000 kPa	844.5
333.15 K, 15000 kPa	849.5
333.15 K, 20000 kPa	854.1
333.15 K, 25000 kPa	858.6
333.15 K, 30000 kPa	862.9
333.15 K, 35000 kPa	867
338.15 K, 100 kPa	828.4
338.15 K, 1000 kPa	829.5
338.15 K, 2000 kPa	830.7
338.15 K, 2780 kPa	831.5
338.15 K, 3000 kPa	831.8
338.15 K, 5000 kPa	834
338.15 K, 10000 kPa	839.4
338.15 K, 15000 kPa	844.5
338.15 K, 20000 kPa	849.3
338.15 K, 25000 kPa	853.9
338.15 K, 30000 kPa	858.2
338.15 K, 35000 kPa	862.4
343.15 K, 100 kPa	823
343.15 K, 1000 kPa	824.1
343.15 K, 2000 kPa	825.3
343.15 K, 2780 kPa	826.2
343.15 K, 3000 kPa	826.5
343.15 K, 5000 kPa	828.8
343.15 K, 10000 kPa	834.4
343.15 K, 15000 kPa	839.6
343.15 K, 20000 kPa	844.5
343.15 K, 25000 kPa	849.2
343.15 K, 30000 kPa	853.7
343.15 K, 35000 kPa	858
348.15 K, 100 kPa	817.7
348.15 K, 1000 kPa	818.7
348.15 K, 2000 kPa	820
348.15 K, 2780 kPa	821
348.15 K, 3000 kPa	821.3
348.15 K, 5000 kPa	823.7
348.15 K, 10000 kPa	829.4
348.15 K, 15000 kPa	834.8
348.15 K, 20000 kPa	839.9
348.15 K, 25000 kPa	844.7
348.15 K, 30000 kPa	849.3
348.15 K, 35000 kPa	853.6
353.15 K, 100 kPa	812.2
353.15 K, 1000 kPa	813.3
353.15 K, 2000 kPa	814.6
353.15 K, 2780 kPa	815.6
353.15 K, 3000 kPa	815.9
353.15 K, 5000 kPa	818.4
353.15 K, 10000 kPa	824.3
353.15 K, 15000 kPa	829.9
353.15 K, 20000 kPa	835.1
353.15 K, 25000 kPa	840
353.15 K, 30000 kPa	844.7
353.15 K, 35000 kPa	849.1
363.15 K, 100 kPa	801.2
363.15 K, 1000 kPa	802.5
363.15 K, 2000 kPa	803.9
363.15 K, 2780 kPa	805
363.15 K, 3000 kPa	805.5
363.15 K, 5000 kPa	808.1
363.15 K, 10000 kPa	814.6
363.15 K, 15000 kPa	820.5
363.15 K, 20000 kPa	826
363.15 K, 25000 kPa	831.2
363.15 K, 30000 kPa	836
363.15 K, 35000 kPa	840.8
373.15 K, 100 kPa	790.7
373.15 K, 1000 kPa	792
373.15 K, 2000 kPa	793.5
373.15 K, 2780 kPa	794.7
373.15 K, 3000 kPa	795
373.15 K, 5000 kPa	797.9
373.15 K, 10000 kPa	804.8
373.15 K, 15000 kPa	810.9
373.15 K, 20000 kPa	816.7
373.15 K, 25000 kPa	822.2
373.15 K, 30000 kPa	827.3
373.15 K, 35000 kPa	832.3
383.15 K, 100 kPa	779.9
383.15 K, 1000 kPa	781.3
383.15 K, 2000 kPa	783
383.15 K, 2780 kPa	784.2
383.15 K, 3000 kPa	784.5
383.15 K, 5000 kPa	787.6
383.15 K, 10000 kPa	795
383.15 K, 15000 kPa	801.5
383.15 K, 20000 kPa	807.6
383.15 K, 25000 kPa	813.4
383.15 K, 30000 kPa	818.9
383.15 K, 35000 kPa	824
393.15 K, 100 kPa	769
393.15 K, 1000 kPa	770.5
393.15 K, 2000 kPa	772.3
393.15 K, 2780 kPa	773.6
393.15 K, 3000 kPa	774.1
393.15 K, 5000 kPa	777.4
393.15 K, 10000 kPa	785.1
393.15 K, 15000 kPa	791.6
393.15 K, 20000 kPa	797.7
393.15 K, 25000 kPa	803.5
393.15 K, 30000 kPa	809
393.15 K, 35000 kPa	814
